In ChEMBL document CHEMBL5647692, “The novel dual PI3K/mTOR inhibitor NVP-BGT226 displays cytotoxic activity in both normoxic and hypoxic hepatocarcinoma cells” (Oncotarget, 2015):
Active and inactive are the calls of the source. The rule behind the calls is not given here.

Tests used:
SNU-475 [1] = experiment: Induction of autophagy in human SNU-475 cells assessed as increase in lipidation of LC3A/B II level at 0.5 uM incubated for 24 hrs in presence of chloroquine by Western blot analysis; type: functional, cell-based
SNU-449 [2] = experiment: Cytotoxicity against human SNU-449 cells assessed as reduction in cell viability incubated for 48 hrs by MTT assay; type: functional, cell-based; conditions: SNU-449, 48 h
[3] = Inhibition of PI3K/Akt/mTOR signaling pathway in human Hep3B cells assessed as reduction in phosphorylation of GSK3 alpha/beta incubated for 1 hr under normoxia condition by Western blotting analysis; type: cell-based; conditions: dose 0.25-1 µM
SNU-475 [4] = experiment: Induction of autophagy in human SNU-475 cells assessed as decreased expression of SQSTM1/p62 level incubated for 24 hrs under hypoxia condition by Western blot analysis; type: functional, cell-based; conditions: dose 0.1-0.5 µM
SNU-475 [5] = experiment: Induction of apoptosis in human SNU-475 cells incubated for 24 hrs by Annexin-V/7-AAD staining based muse cell analyzer method; type: functional; conditions: dose 0.01-0.5 µM
[6] = Inhibition of PI3K/Akt/mTOR signaling pathway in human SNU-475 cells assessed as reduction in phosphorylation of Akt at 0.001 to 0.01 uM incubated for 1 hr under hypoxia condition by Western blotting analysis; type: cell-based; conditions: dose 0.001-0.01 µM
HepG2 = experiment: Cytotoxicity against human HepG2 cells assessed as reduction in cell viability at 0.5 uM incubated for 24 hrs in presence of 3-Methyladenine by MTT assay; type: functional, cell-based
[7] = Inhibition of PI3K/Akt/mTOR signaling pathway in human Mahlavu cells assessed as reduction in phosphorylation of GSK3 alpha/beta incubated for 1 hr under normoxia condition by Western blotting analysis; type: cell-based; conditions: dose 0.25-1 µM
SNU-449 [8] = experiment: Cytotoxicity against human SNU-449 cells assessed as reduction in cell viability at 0.5 to 5 uM incubated for 24 hrs by MTT assay; type: functional, cell-based; conditions: dose 0.5-5 µM
Mahlavu [9] = experiment: Induction of cell cycle arrest in human Mahlavu cells assessed as increase in accumulation of cells in G0/G1 phase incubated at 0.01 to 0.1 uM for 24 hrs by propidium iodide staining based muse cell analysis; type: functional; conditions: dose 0.01-0.1 µM
[10] = Inhibition of PI3K/Akt/mTOR signaling pathway in human Mahlavu cells assessed as reduction in S6 phosphorylation at 1 to 10 nM incubated for 1 hr under normoxia condition by Western blotting analysis; type: cell-based; conditions: dose 1-10 nM
[11] = Inhibition of PI3K/Akt/mTOR signaling pathway in human SNU-449 cells assessed as reduction in phosphorylation of mTORC1/2 incubated for 1 hr under normoxia condition by Western blotting analysis; type: cell-based; conditions: dose 0.25-1 µM
Mahlavu [12] = experiment: Cytotoxicity against human Mahlavu cells assessed as reduction in cell viability at 0.5 uM incubated for 24 hrs in presence of 3-Methyladenine by MTT assay; type: functional, cell-based
SNU-449 [13] = experiment: Induction of apoptosis in human SNU-449 cells assessed as early apoptotic cells at IC50 concentration incubated for 24 hrs in presence of Z-VAD-fmk by Annexin-V/7-AAD staining based muse cell analyzer method (reference value: 3.95 %); type: functional
Hep 3B2 [14] = experiment: Cytotoxicity against human Hep3B cells assessed as reduction in cell viability incubated for 24 hrs under normoxia condition by MTT assay; type: functional, cell-based
SNU-475 [15] = experiment: Induction of autophagy in human SNU-475 cells assessed as increase in LC3I to LC3II conversion at 0.5 uM incubated for 24 hrs under hypoxia condition by Western blot analysis; type: functional, cell-based
[16] = Inhibition of PI3K/Akt/mTOR signaling pathway in human SNU-475 cells assessed as reduction in phosphorylation of Akt incubated for 1 hr under normoxia condition by Western blotting analysis; type: cell-based; conditions: dose 0.25-1 µM
Mahlavu [17] = experiment: Induction of apoptosis in human Mahlavu cells assessed as late apoptotic cells at IC50 incubated for 24 hrs in presence of Z-VAD-fmk by Annexin-V/7-AAD staining based muse cell analyzer method (reference value: 2.24 %); type: functional
Mahlavu [18] = experiment: Induction of apoptosis in human Mahlavu cells assessed as early apoptotic cells at 0.66 uM incubated for 24 hrs by Annexin-V/7-AAD staining based muse cell analyzer method (reference value: 6.57 %); type: functional
[19] = Inhibition of PI3K/Akt/mTOR signaling pathway in human SNU-449 cells assessed as reduction in phosphorylation of Akt at 0.001 to 0.01 uM incubated for 1 hr under hypoxia condition by Western blotting analysis; type: cell-based; conditions: dose 0.001-0.01 µM
Mahlavu [20] = experiment: Induction of apoptosis in human Mahlavu cells assessed as viable cells at 0.66 uM incubated for 24 hrs by Annexin-V/7-AAD staining based muse cell analyzer method (reference value: 90.52 %); type: functional; conditions: read-out: Activity
Mahlavu [21] = experiment: Induction of apoptosis in human Mahlavu cells assessed as late apoptotic cells at 0.66 uM incubated for 24 hrs by Annexin-V/7-AAD staining based muse cell analyzer method (reference value: 2.24 %); type: functional
Mahlavu [22] = experiment: Induction of apoptosis in human Mahlavu cells assessed as viable cells at IC50 incubated for 24 hrs in presence of Z-VAD-fmk by Annexin-V/7-AAD staining based muse cell analyzer method (reference value: 90.52 %); type: functional
[23] = biological target: Hypoxia-inducible factor 1-alpha (Homo sapiens) (UniProt Q16665); experiment: Inhibition of HIF-1alpha in human Hep3B cells incubated for 6 hrs under hypoxia condition by Western blot analysis; type: cell-based; conditions: dose 0.01-0.1 µM
Chain of Hypoxia-inducible factor 1-alpha (Homo sapiens) (Q16665 whole entry, looked up): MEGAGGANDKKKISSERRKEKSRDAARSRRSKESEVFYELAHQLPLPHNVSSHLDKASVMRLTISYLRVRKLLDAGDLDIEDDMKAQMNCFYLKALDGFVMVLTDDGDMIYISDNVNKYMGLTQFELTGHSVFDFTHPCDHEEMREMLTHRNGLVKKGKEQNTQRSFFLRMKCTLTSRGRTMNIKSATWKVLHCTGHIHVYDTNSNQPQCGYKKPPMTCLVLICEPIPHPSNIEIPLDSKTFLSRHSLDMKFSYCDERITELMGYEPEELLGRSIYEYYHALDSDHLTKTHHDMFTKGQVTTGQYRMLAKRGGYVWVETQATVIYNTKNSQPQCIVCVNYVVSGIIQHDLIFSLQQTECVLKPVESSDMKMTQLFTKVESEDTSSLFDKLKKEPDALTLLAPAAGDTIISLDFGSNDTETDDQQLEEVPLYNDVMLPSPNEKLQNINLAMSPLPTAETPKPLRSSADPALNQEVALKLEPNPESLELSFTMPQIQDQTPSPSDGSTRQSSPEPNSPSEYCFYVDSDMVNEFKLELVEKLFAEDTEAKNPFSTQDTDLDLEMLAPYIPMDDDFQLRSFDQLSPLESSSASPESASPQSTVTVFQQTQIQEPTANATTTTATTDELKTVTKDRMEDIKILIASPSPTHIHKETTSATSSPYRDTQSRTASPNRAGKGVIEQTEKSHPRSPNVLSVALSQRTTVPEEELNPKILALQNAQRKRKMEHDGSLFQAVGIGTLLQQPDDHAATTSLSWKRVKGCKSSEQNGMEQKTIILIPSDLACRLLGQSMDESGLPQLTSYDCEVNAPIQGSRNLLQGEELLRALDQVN

[24] = Inhibition of PI3K/Akt/mTOR signaling pathway in human Mahlavu cells assessed as reduction in phosphorylation of mTORC1 substrate S6 incubated for 1 hr under normoxia condition by Western blotting analysis; type: cell-based; conditions: dose 0.25-1 µM
SNU-449 [25] = experiment: Induction of apoptosis in human SNU-449 cells assessed as necrotic cells at 1.5 uM incubated for 24 hrs by Annexin-V/7-AAD staining based muse cell analyzer method (reference value: 0.95 %); type: functional
Mahlavu [26] = experiment: Induction of apoptosis in human Mahlavu cells assessed as cleaved Caspase 7 level at 0.5 uM incubated for 24 hrs by Western blotting analysis; type: functional, cell-based
[27] = Inhibition of PI3K/Akt/mTOR signaling pathway in human Mahlavu cells assessed as reduction in phosphorylation of mTORC1/2 incubated for 1 hr under normoxia condition by Western blotting analysis; type: cell-based; conditions: dose 0.25-1 µM
[28] = Inhibition of PI3K/Akt/mTOR signaling pathway in human HepG2 cells assessed as reduction in phosphorylation of GSK3 alpha/beta incubated for 1 hr under normoxia condition by Western blotting analysis; type: cell-based; conditions: dose 0.25-1 µM
Mahlavu [29] = experiment: Induction of autophagy in human Mahlavu cells assessed as increase in lipidation of LC3I to LC3II at 0.5 uM incubated for 24 hrs by Western blot analysis; type: functional, cell-based
[30] = Inhibition of PI3K/Akt/mTOR signaling pathway in human HepG2 cells assessed as reduction in phosphorylation of Akt incubated for 1 hr under normoxia condition by Western blotting analysis; type: cell-based; conditions: dose 0.25-1 µM
Hep 3B2 [31] = experiment: Induction of apoptosis in human Hep3B cells assessed as cleaved Caspase 9 level at 0.5 uM incubated for 24 hrs by Western blotting analysis; type: functional, cell-based
Mahlavu [32] = experiment: Induction of apoptosis in human Mahlavu cells assessed as early apoptotic cells at IC50 incubated for 24 hrs in presence of Z-VAD-fmk by Annexin-V/7-AAD staining based muse cell analyzer method (reference value: 6.57 %); type: functional

For `COc1ccc(-c2ccc3ncc4c(c3c2)n(-c2ccc(N3CCNCC3)c(C(F)(F)F)c2)c(=O)n4C)cn1` [BGT-226 FREE BASE], the Activity (SNU-475 [1]) was “Active”, the IC50 (SNU-449 [2]) was 510 nM and the inhibition [3] was “Dose-Dependent Effect”. The Activity (SNU-475 [4]) was “Dose-Dependent Effect”, the Activity (SNU-475 [5]) was “Dose-Dependent Effect” and the inhibition [6] was “Active”. The Activity (HepG2) was “Active”, the inhibition [7] was “Dose-Dependent Effect” and the Activity (SNU-449 [8]) was “Active”. The Activity (Mahlavu [9]) was “Active”, the inhibition [10] was “Active” and the inhibition [11] was “Dose-Dependent Effect”. For the same compound, the Activity (Mahlavu [12]) was “Active”, the Activity (SNU-449 [13]) was 11.94% and the Activity (Hep 3B2 [14]) was “Active”. For the same compound, the Activity (SNU-475 [15]) was “Dose-Dependent Effect”, the inhibition [16] was “Dose-Dependent Effect” and the Activity (Mahlavu [17]) was 5.85%. For the same compound, the Activity (Mahlavu [18]) was 47.22%, the inhibition [19] was “Active” and the viability at 0.66 µM (Mahlavu [20]) was 50.8%. For the same compound, the Activity (Mahlavu [21]) was 1.99%, the Activity (Mahlavu [22]) was 81.63% and the inhibition [23] was “Dose-Dependent Effect”. For the same compound, the inhibition [24] was “Dose-Dependent Effect”, the Activity (SNU-449 [25]) was 1.02% and the Activity (Mahlavu [26]) was “Active”. The inhibition [27] was “Dose-Dependent Effect”, the inhibition [28] was “Dose-Dependent Effect” and the Activity (Mahlavu [29]) was “Active”. The inhibition [30] was “Dose-Dependent Effect”, the Activity (Hep 3B2 [31]) was “Active” and the Activity (Mahlavu [32]) was 11.97%.
